Source: patent US20110098495A1, “Compositions and methods of omega polyunsaturated fatty acids for the treatment of oral diseases” (priority 2009, published 2011)
≈ marks a conversion by molar mass, not a printed value.

Tests used:
Type in all cases: cell-based
Candida albicans = Candida albicans growth inhibition; details: final concentration 25 μg/ml
Procedure: [The procedure below names another organism; the source lists this organism under the same test.] (§1) The inventor verified the test by dissolving 1 mg of omega-3 fatty acids (EPA, DHA, and ALA) and omega-6 fatty acids (ARA, GLA), omega-3 fatty acid methyl esters (EPA-ME, DHA-ME, ALA-ME), and omega-3 fatty acid ethyl esters (EPA-EE, DHA-EE, ALA-EE) in 1000 μl ethanol solution; took 1 (final concentration 1 μg/ml) and 5 μl (final concentration 5 μg/ml) solution by adding 100 μl of Streptococcus mutans in the culture medium cultured overnight at 37° C. After the overnight culture, the medium was diluted 1:10000 times, 5 μl of the diluted culture was applied to blood agar plate and cultured overnight. Calculated the number of colonies on the plates and compared with the control group to obtain the percentage of inhibition.

[1] = test system: Actinobacillus actinomycetemcomitans; assay: Actinobacillus actinomycetemcomitans growth inhibition; details: Aggregatibacter actinomycetemcomitans; final concentration 15 μg/ml
Procedure: [The procedure below names another organism; the source lists this organism under the same test.] as §1

Streptococcus mutans = Streptococcus mutans growth inhibition, colony count on blood agar plate vs control; details: overnight culture 37° C, colony count vs negative control, read-out: IC50 against Streptococcus mutans
Procedure: as §1

| SMILES | inhibition at 25 µg/mL (Candida albicans) | inhibition at 15 µg/mL [1] | IC50 (Streptococcus mutans) |
| --- | --- | --- | --- |
| CC/C=C\C/C=C\C/C=C\CCCCCCCC(=O)O [ALA, α-linolenic acid] | 50% | 50% |  |
| CCCCC/C=C\C/C=C\C/C=C\C/C=C\CCCC(=O)O [ARA, arachidonic acid] | 50% | 50% | ~5 µg/mL (≈ 16.4 µM) |
| CC/C=C\C/C=C\C/C=C\C/C=C\C/C=C\C/C=C\CCC(=O)O [DHA, docosahexaenoic acid] | 50% | 50% |  |
| CC/C=C\C/C=C\C/C=C\C/C=C\C/C=C\CCCC(=O)O [EPA, eicosapentaenoic acid] | 50% | 50% |  |
| CCCCC/C=C\C/C=C\C/C=C\CCCCC(=O)O [GLA, γ-linolenic acid] |  |  | ~5 µg/mL (≈ 18 µM) |
